Assay results reported in article PMC6324650 (Molecular Pharmacology, 2019).

What was measured:
[1] = Hydrolysis and cyclization of active NHS ester in PBS; format: physicochemical; conditions: PBS (pH 8.2), ligand coupling conditions
NK1 receptor = conditions: 37°C; ref Garland et al., 1994; cited from earlier work

| Compound | hydrolysis and cyclization of the active NHS ester [1] | time to NK1 receptor internalization upon activation (NK1 receptor) |
| --- | --- | --- |
| O=C(CCCC[C@@H]1SC[C@@H]2NC(=O)N[C@@H]21)NCCCOCCOCCOCCCn1cc(CNC(=O)[C@H](CCCCNC(=O)CCC(=O)ON2C(=O)CCC2=O)NC(=O)CCc2ccc(C3(C(F)(F)F)N=N3)cc2)nn1 [probe 1, 2,5-Dioxopyrrolidin-1-yl 4-oxo-4-(((S)-6-oxo-6-(((1-(15-oxo-19-((3aS,4S,6aR)-2-oxohexahydro-1H-thieno[3,4-d]imidazol-4-yl)-4,7,10-trioxa-14-azanonadecyl)-1H-1,2,3-triazol-4-yl)methyl)amino)-5-(3-(4-(3-(trifluoromethyl)-3H-diazirin-3-yl)phenyl)propanamido)hexyl)amino)butanoate] | partial hydrolysis as well as intramolecular cyclization of the active NHS ester were inevitable | – |
| substance P [SP] | – | 3 min |
